# How the values were obtained:
# in vivo = details: dog, po, 150 mg
# Description: Tablets were manufactured containing either pure zoledronic acid or the disodium salt of zoledronic acid (disodium zoledronate tetrahydrate). Both types of tablets contained 50 mg of zoledronic acid equivalent per tablet. Identical excipients were used in both types of tablets, with amounts adjusted to account for the difference in molecular weights between the acid and the disodium salt.
# Beagle dogs were orally administered tablets containing 150 mg zoledronic acid equivalent either in the form of disodium zoledronate (Group 1) or pure zoledronic acid (Group 2). Each animal was given three 50 mg equivalent tablets (150 mg total), which were administered together. The animal's oral cavity was wetted with water before placing the tablets on the back of the animal's tongue. Animals were fasted before and after dosing. Animals were 6 to 9 months of age and weighed 6 to 10 kg on the day of dosing. There were three dogs per group.
# Serial blood samples were collected from each animal by venipuncture of the jugular vein at various points after dosing for measurement of plasma concentrations of zoledronic acid. Blood samples were collected into chilled tubes containing K2EDTA as the anticoagulant. Samples were then centrifuged at approximately 3000 rpm at +4° C. for 10 minutes for plasma derivation. Plasma concentrations of zoledronic acid were measured using an LC/MS/MS method.
# [1] = type: physicochemical; details: pH 5.5
# Description: One gram of the test compound was measured into a beaker. […] The procedure was continued until complete dissolution was achieved. […] The procedure was performed for each compound.
compound,measurement,setting,value
O.O.O.O.O=P([O-])(O)C(O)(Cn1ccnc1)P(=O)([O-])O.[Na+].[Na+] [disodium zoledronate tetrahydrate],average AUC0-∞,in vivo,4073 ng·h/mL
same,aqueous solubility relative to zoledronic acid,[1],approximately 50 times
